Source: US8338414B2, “Immunosuppressive agent and anti-tumor agent comprising heterocyclic compound as active ingredient” (Zenyaku Kogyo KabushikiKaisha, priority 2005, dated 2012)
Read-outs that look alike come from different tables or passages of the source.

Experiments:
mouse spleen cells = assay: Proliferation inhibition assay for mouse spleen cells; type: cell-based; settings: 72 h, 3 days, Alamar Blue
Procedure: Spleen cells (2×10^6 cells/mL) prepared from C57BL/6N female mice (8 weeks old, purchased from Charles River Laboratories Japan Inc.) were suspended in RPMI 1640 medium (containing 10% fetal bovine serum, 10 mM HEPES, 1 mM pyruvic acid, 4.5 g/L glucose, 100 units/mL penicillin, and 0.1 mg/mL streptomycin), and seeded in wells of a 96 well plate at 0.225 mL per well. Serial dilutions of test substances were added to respective wells, and then concanavalin A (Con A, 3 μg/mL), lipopolysaccharide (LPS, 100 μg/mL), or an anti-mouse IgM antibody (100 μg/mL) were added. Thereafter, they were incubated under conditions of carbon dioxide 5% at a temperature 37° C. for 3 days. Next, Alamar Blue solution was added at 50 μL per 150 μL, and after having cultured for one day, the fluorescence intensity at 590 nm using an excitation wavelength of 530 nm was determined by Cytoflour 4000 (Applied Biosystems).

[1] = test system: Rabbit synoviocytes HIG-82; assay: Inhibition assay for proliferation of rabbit synoviocyte; type: cell-based; settings: Oryctolagus cuniculus, 72 h; HIG-82, 3 days, Alamar Blue
Procedure: Rabbit synoviocytes HIG-82 suspended in HAM medium (containing 10% fetal bovine serum, 25 mM HEPES, and 0.1 mg/mL kanamycin) (with 4×10^4 cells/mL) were seeded in wells of a 96 well plate at 0.135 mL per well. Then, 15 μL of each of serial dilutions of test substances was added to a respective well, and incubated under conditions of carbon dioxide 5% at a temperature 37° C. Alamar Blue solution was added at 50 μL per well on day 0 and day 3, and incubated for one day, and thereafter fluorescence intensity at 590 nm using an excitation wavelength of 530 nm was determined by Cytoflour 4000 (Applied Biosystems).

Daudi cells = assay: Proliferation inhibitory activity on hematologic neoplasm cells, Daudi; type: cell-based; settings: Homo sapiens, Daudi, 72 h; 3 days, Alamar Blue
Procedure: (§1) Daudi cells (5×10^5 cells/mL), Jurkat cells (5×10^5 cells/mL), THP-1 cells (5×10^5 cells/mL), U 937 cells (5×10^5 cells/mL), and HL 60 cells (5×10^5 cells/mL) suspended in RPMI 1640 medium (containing 10% fetal bovine serum, 10 mM HEPES, 1 mM pyruvic acid, 4.5 g/L glucose, 100 units/mL penicillin, and 0.1 mg/mL streptomycin) were seeded in 96 well plates at a capacity of 0.135 mL per well. Serial dilutions of test substances were added to respective wells at 15 μL/well, and incubated under conditions of carbon dioxide 5% at 37° C. for 3 days. Thereafter, Alamar Blue solution was added at 50 μL, and after incubation for one day, the fluorescence intensity at 590 nm using an excitation wavelength of 530 nm was determined by Cytoflour 4000 (Applied Biosystems).

Jurkat cells = assay: Proliferation inhibitory activity on hematologic neoplasm cells, Jurkat; type: cell-based; settings: Homo sapiens, Jurkat, 72 h; 3 days, Alamar Blue
Procedure: as §1

THP-1 cells = assay: Proliferation inhibitory activity on hematologic neoplasm cells, THP-1; type: cell-based; settings: Homo sapiens, THP-1, 72 h; 3 days, Alamar Blue
Procedure: as §1

[2] = test system: PC-3 prostate cancer cells; assay: Proliferation inhibitory activity on solid tumor cells, PC-3; type: cell-based; settings: 72 hours
Procedure: (§2) Used in the test were MCF-7 cells which were established from human breast cancer and were cultured routinely under the conditions of 37° C. and 5% CO2, in MEM medium supplemented with 10% fetal calf serum, 25 mM of HEPES and 0.1 mg/ml kanamycin. The MCF-7 cells in a logarithmic growth phase were treated with trypsin/EDTA to prepare single cell suspension adjusted to 4.0×10^4 cells/ml in MEM medium (supplemented with 10% fetal calf serum, 25 mM of HEPES and 0.1 mg/ml kanamycin). Test compounds were dissolved in DMSO and diluted with RPMI 1640 medium (supplemented with 10% fetal calf serum, 25 mM of HEPES and 0.1 mg/ml kanamycin) to a concentration of […] to 2.0×10^−9M.
(§3) The cell suspension was filled in a 96-wells microplate at a rate of 0.1 ml per well and was cultured for 24 hours so as to make the cells to adhere to the microplate. Then, it was added with 0.1 ml of the sample solution and cultured at 37° C. for 72 hours in 5% CO2.
(§4) 50% Growth inhibition concentrations (GI50 μM) were calculated from growth inhibitions at various sample concentrations.
(§5) In the foregoing, when the cells other than MCF-7 are used, instead of adding 10% fetal bovine serum, the following media were used, and the following single cell suspensions were prepared. • PC-3 prostate cancer cells: 10% fetal bovine serum in F12K medium, single cell suspension of 2×10^4 cells; • A549 lung cancer cells: 10% fetal bovine serum in DMEM medium, single cell suspension of 1.5×10^4 cells; • WiDr colon cancer cells: 10% fetal bovine serum in MEM medium, single cell suspension of 3×10^4 cells; • B16F10 melanoma cells: 10% fetal bovine serum in RPMI 1640 medium, single cell suspension of 1×10^4 cells;

B16F10 melanoma cells = assay: Proliferation inhibitory activity on solid tumor cells, B16F10; type: cell-based; settings: Mus musculus, B16-F10; 72 hours
Procedure: as §2, §3, §4, §5

WiDr colon cancer cells = assay: Proliferation inhibitory activity on solid tumor cells, WiDr; type: cell-based; settings: Homo sapiens, 72 hours
Procedure: as §2, §3, §4, §5

A549 lung cancer cells = assay: Proliferation inhibitory activity on solid tumor cells, A549; type: cell-based; settings: Homo sapiens, 72 hours
Procedure: as §2, §3, §4, §5

MCF-7 cells = assay: Proliferation inhibitory activity on solid tumor cells, MCF-7; type: cell-based; settings: Homo sapiens, MCF7; 72 hours
Procedure: as §2, §3, §4

[3] = LPS 100 μg/mL, read-out: Inhibition of LPS response
[4] = concanavalin A 3 μg/mL, read-out: Inhibition of Con A response

`O=C1CCN(c2nc(N3CCOCC3)nc(-n3c(C(F)F)nc4ccccc43)n2)CCN1` [Compound 25, 2-(2-Difluoromethylbenzimidazol-1-yl)-4-morpholino-6-(5-oxo-1,4-diazepan-1-yl)-1,3,5-triazine] gave an IC50 (mouse spleen cells; [3]) of 100 to 10000 nM, an IC50 (mouse spleen cells; [4]) of 1 to 100 nM and an IC50 [1] of 990 nM. For the same compound, the IC50 (Daudi cells) was 190 nM, the IC50 (Jurkat cells) was 1590 nM and the IC50 (THP-1 cells) was 379 nM. For the same compound, the GI50 [2] was 270 nM, the GI50 (B16F10 melanoma cells) was 3210 nM and the GI50 (WiDr colon cancer cells) was 920 nM. The GI50 (A549 lung cancer cells) was 990 nM, the GI50 (MCF-7 cells) was 980 nM and the melting point was 235 to 237 °C.
In the case of `OCCN1CCN(c2nc(N3CCOCC3)nc(-n3c(C(F)F)nc4ccccc43)n2)CC1` [Compound 27, 2-(2-Difluoromethylbenzimidazol-1-yl)-4-[4-(2-hydroxyethyl)piperazin-1-yl]-6-morpholino-1,3,5-triazine], the IC50 (mouse spleen cells; [3]) is reported as 100 to 10000 nM, the IC50 (mouse spleen cells; [4]) is reported as ≤ 1 nM and the IC50 [1] is reported as 1560 nM. It also gave an IC50 (Daudi cells) of 324 nM, an IC50 (Jurkat cells) of 3600 nM and an IC50 (THP-1 cells) of 730 nM. For the same compound, the GI50 [2] was 310 nM, the GI50 (B16F10 melanoma cells) was 4630 nM and the GI50 (WiDr colon cancer cells) was 1320 nM. For the same compound, the GI50 (A549 lung cancer cells) was 1120 nM, the GI50 (MCF-7 cells) was 1140 nM and the melting point was 174 to 177 °C.
`O=C(Cc1ccccc1)N1CCN(c2nc(N3CCOCC3)nc(-n3c(C(F)F)nc4ccccc43)n2)CC1` [Compound 29, 2-(2-Difluoromethylbenzimidazol-1-yl)-4-(4-benzylcarbonylpiperazin-1-yl)-6-morpholino-1,3,5-triazine] gave a GI50 [2] of 320 nM, a GI50 (B16F10 melanoma cells) of 3930 nM and a GI50 (WiDr colon cancer cells) of 2580 nM. It also gave a GI50 (A549 lung cancer cells) of 1320 nM, a GI50 (MCF-7 cells) of 700 nM and a melting point of 178 to 181 °C.
Compound `CC(=O)CN1CCN(c2nc(N3CCOCC3)nc(-n3c(C(F)F)nc4ccccc43)n2)CC1` [Compound 30, 4-(4-Acetonylpiperazin-1-yl)-2-(2-difluoromethylbenzimidazol-1-yl)-6-morpholino-1,3,5-triazine] has a GI50 [2] of 770 nM, a GI50 (B16F10 melanoma cells) of 3320 nM and a GI50 (WiDr colon cancer cells) of 3740 nM. For the same compound, the GI50 (A549 lung cancer cells) was 1520 nM, the GI50 (MCF-7 cells) was 410 nM and the melting point was 79 to 81 °C.
Work on `O=C(c1ccco1)N1CCN(c2nc(N3CCOCC3)nc(-n3c(C(F)F)nc4ccccc43)n2)CC1` [Compound 31, 2-(2-Difluoromethylbenzimidazol-1-yl)-4-[4-(2-furoyl)piperazin-1-yl]-6-morpholino-1,3,5-triazine] yielded a GI50 [2] of 320 nM, a GI50 (B16F10 melanoma cells) of 1510 nM and a GI50 (WiDr colon cancer cells) of 1430 nM. The GI50 (A549 lung cancer cells) was 650 nM, the GI50 (MCF-7 cells) was 50 nM and the melting point was 220 to 222 °C.
Compound `CN(C)C(=O)N1CCN(c2nc(N3CCOCC3)nc(-n3c(C(F)F)nc4ccccc43)n2)CC1` [Compound 32, 2-(2-Difluoromethylbenzimidazol-1-yl)-4-[4-(N,N-dimethylcarbamoyl)piperazin-1-yl]-6-morpholino-1,3,5-triazine] has a GI50 [2] of 380 nM, a GI50 (B16F10 melanoma cells) of 2140 nM and a GI50 (WiDr colon cancer cells) of 1330 nM. The GI50 (A549 lung cancer cells) was 830 nM, the GI50 (MCF-7 cells) was < 40 nM and the melting point was 203 to 205 °C.
In the case of `COCC(=O)N1CCN(c2nc(N3CCOCC3)nc(-n3c(C(F)F)nc4ccccc43)n2)CC1` [Compound 33, 2-(2-Difluoromethylbenzimidazol-1-yl)-4-(4-methoxylacetylpiperazin-1-yl)-6-morpholino-1,3,5-triazine], the GI50 [2] is reported as 510 nM, the GI50 (B16F10 melanoma cells) is reported as 2910 nM and the GI50 (WiDr colon cancer cells) is reported as 1460 nM. The GI50 (A549 lung cancer cells) was 1050 nM, the GI50 (MCF-7 cells) was < 40 nM and the melting point was 72 to 75 °C.
Compound `CCC(=O)N1CCN(c2nc(N3CCOCC3)nc(-n3c(C(F)F)nc4ccccc43)n2)CC1` [Compound 35, 2-(2-Difluoromethylbenzimidazol-1-yl)-4-morpholino-6-(4-propionylpiperazin-1-yl)-1,3,5-triazine] has a GI50 [2] of 730 nM, a GI50 (B16F10 melanoma cells) of 2840 nM and a GI50 (WiDr colon cancer cells) of 2100 nM. The GI50 (A549 lung cancer cells) was 1220 nM, the GI50 (MCF-7 cells) was 100 nM and the melting point was 198 to 202 °C.
